Test results taken from the supplement of paper PMC8837787.
Structures can show the parent of a compound that is named as a salt.

Test system: Saccharomyces cerevisiae ABC16-Green Monster
Settings: 18 h; 30 °C; YPD
In short: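 IC50 values come from GraphPad Prism fits of log(inhibitor) versus response, with variable slope, applied to background-subtracted optical density. The assay used 96-well plates holding 200 µl per well of log-phase drug-sensitive S. cerevisiae ABC16-Green Monster in YPD. Compound was added as eight 1:2 dilutions spanning final concentrations of 0.1–150 μM, in biological duplicate, and plates were kept at 30 °C for 18 h, with OD600 measured at 0 h and 18 h.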

SMILES | IC50 growth inhibition
CC(C)(C)c1ccc(C(=N)NOC(=O)c2sccc2Cl)cc1 | 8.34 µM
N=C(N)c1ccc(OCCCCCOc2ccc(C(=N)N)cc2)cc1 | 83.8 µM
c1ccc(CSc2scnc2[P+](c2ccccc2)(c2ccccc2)c2ccccc2)cc1 [GNF-Pf-238] | 4.06 µM
Cn1cc(CN2CCc3c(c(C(=O)NCc4nccs4)nn3Cc3ccccc3)C2)c2ccccc21 | 109 µM
COc1cccc2c1C(=O)c1c(O)c3c(c(O)c1C2=O)CC(O)(C(=O)CO)CC3OC1CC(N)C(O)C(C)O1 (stereo unspecified) [Doxorubicin] | 11.2 µM
CCCCCN(C)CCC(O)(P(=O)([O-])O)P(=O)(O)O.[Na+] [Ibandronate] | > 75 µM
Cc1nn(C)cc1C(C)Nc1nncc(-c2ccc(C(F)(F)F)cc2)n1 (stereo unspecified) | 44.9 µM
Cc1ccc2c(Br)cc(Br)c(OC(=O)c3ccccc3)c2n1 [Broxaldine] | 2.24 µM
CCC(C)CC(C)CCCCCCCCC(=O)NC1CC(O)C(NCCN)NC(=O)C2C(O)CCN2C(=O)C(C(O)CCN)NC(=O)C(C(O)C(O)c2ccc(O)cc2)NC(=O)C2CC(O)CN2C(=O)C(C(C)O)NC1=O (stereo unspecified) [Caspofungin] | 0.0305 µM
Cc1cccc2sc(C(=O)NCc3cccc(NS(N)(=O)=O)c3)c(Cl)c12 | 70.6 µM
FC(F)(F)c1ccc(N(c2cccnc2)C2CCN(c3ccc(C(F)(F)F)cn3)CC2)cc1 | 40 µM
CCCc1nn(C)c2c(=O)nc(-c3cc(S(=O)(=O)N4CCN(C)CC4)ccc3OCC)[nH]c12 [Sildenafil citrate] | > 75 µM
CC1C=CC=CC=CC=CC=CC=CC=CC(OC2OC(C)C(O)C(N)C2O)CC2OC(O)(CC(O)CC(O)C(O)CCC(O)CC(O)CC(=O)OC(C)C(C)C1O)CC(O)C2C(=O)O (stereo unspecified) [Amphotericin B] | 63.3 µM
Brc1ccc(Nc2nc3ccccc3nc2Nc2ccc(Br)cc2)cc1 | 2.31 µM
O=C1C2=C(Nc3ccccc3SC2c2ccc(OCc3ccccc3)cc2)c2ccccc21 (stereo unspecified) [GNF-PF-5338] | > 150 µM
CCOc1ccc(C(=O)CN(C#N)C(=O)c2ccccc2)cc1 | 25 µM

SMILES | IC50 growth inhibition
O=C1NC(=O)C(c2cnc3ccccn23)=C1c1cn2c3c(cc(F)cc13)CN(C(=O)N1CCCCC1)CC2 | > 75 µM
CCCCN(CCCC)CC(O)c1cc(Cl)cc2c1-c1ccc(Cl)cc1C2=Cc1ccc(Cl)cc1 (stereo unspecified) [Lumefantrine] | > 75 µM
CCC(C)(C)c1ccc(OCCOCC[n+]2ccccc2)c(C(C)(C)CC)c1.[Cl-] [GNF-Pf-1618] | 2.19 µM
Cc1ccc2c(c1C)NC(=O)C21NN=C(c2ccccc2)S1 (stereo unspecified) | 10.2 µM
CN(C)C(=N)N=C(N)N [Metformin] | > 75 µM
COc1cc(C2c3cc4c(cc3C(OC3OC5COC(C)OC5C(O)C3O)C3COC(=O)C23)OCO4)cc(OC)c1O (stereo unspecified) [Etoposide] | 23.6 µM
Cc1cc(NS(=O)(=O)c2ccc(Nc3nc(-c4ccc(Cl)c(Cl)c4)cs3)cc2)no1 [CBR410] | 4.87 µM
COC=C(C(=O)OC)c1ccccc1Oc1cc(Oc2ccccc2C#N)ncn1 [Azoxystrobin] | > 75 µM
CC1C=CC=CCCC=CC=CC=CC=CC(OC2OC(C)C(O)C(N)C2O)CC2OC(O)(CC(O)C(O)CCC(O)CC(O)CC(O)CC(=O)OC(C)C(C)C1O)CC(O)C2C(=O)O (stereo unspecified) [Nystatin] | > 75 µM
O=C1C=CC(=O)N1c1ccc(C2CCCCC2)cc1 | 1.69 µM
FC(F)c1nc2ccccc2n1-c1nc(N2CCOCC2)nc(N2CCOCC2)n1 [ZSTK-474] | 52 µM
CCc1c(C(=O)Nc2nc(C)cs2)cnn1-c1cccc(Cl)c1 | 30.5 µM
Cc1[nH]c2ccccc2c(=O)c1CC=C(Cl)Cl [GNF-Pf-4439] | > 150 µM
c1ccc(-c2cn3nc(N4CCN(Cc5cn6ccccc6n5)CC4)sc3n2)cc1 | 50.8 µM
N#C/C(=C\c1cn(Cc2ccccc2)nc1-c1cccnc1)c1nc2ccccc2[nH]1 | 138 µM
